Experimental data: the NIST ThermoML archive (doi:10.1016/j.jct.2018.05.008)

Assay: mn = molality of the nth substance listed, in mol/kg
Conditions: 101.3 kPa, Liquid, Vibrating tube method

O [water] + NCC(=O)O
m2 = 0
Conditions	mass density [kg/m3]
308.15 K	994.07
310.15 K	993.37
318.15 K	990.26

O [water] + C[C@H](N)C(=O)O
m2 = 0
Conditions	mass density [kg/m3]
308.15 K	994.08
310.15 K	993.38
318.15 K	990.27

C[C@H](N)C(=O)O [(S)-2-aminopropanoic acid] + O
mass density [kg/m3]
Conditions	m1 = 0.0522	m1 = 0.1036	m1 = 0.2032	m1 = 0.3122	m1 = 0.3941	m1 = 0.4964	m1 = 0.5873	m1 = 0.6752	m1 = 0.791
288.15 K	1000.63	1002.12	1004.98	1008.03	1010.29	1013.01	1015.47	1017.77	1020.75
298.15 K	998.58	1000.04	1002.84	1005.84	1008.05	1010.78	1013.15	1015.38	1018.3
308.15 K	995.56	997	999.75	1002.71	1004.9	1007.59	1009.93	1012.15	1015.04
310.15 K	994.85	996.28	999.03	1001.99	1004.18	1006.87	1009.2	1011.4	1014.3
318.15 K	991.74	993.17	995.9	998.84	1001	1003.68	1006.01	1008.22	1011.1

O [water] + C[C@@H](O)[C@H](N)C(=O)O
Conditions	mass density [kg/m3]
310.15 K, m2 = 0	993.32

O [water] + N[C@@H](CO)C(=O)O
m2 = 0
Conditions	mass density [kg/m3]
308.15 K	994.06
310.15 K	993.36

O [water] + CCCCn1cc[n+](C)c1.[Br-]
m2 = 0
Conditions	mass density [kg/m3]
308.15 K	994.07
310.15 K	993.37
318.15 K	990.26

C[C@@H](O)[C@H](N)C(=O)O [L-threonine] + O
mass density [kg/m3]
Conditions	m1 = 0.1926	m1 = 0.2858	m1 = 0.3869	m1 = 0.4789	m1 = 0.5872	m1 = 0.6687
288.15 K	1007.25	1011.08	1015.18	1018.78	1022.93	1026.01
298.15 K	1005.04	1008.79	1012.82	1016.36	1020.45	1023.46
308.15 K	1001.91	1005.62	1009.58	1013.09	1017.13	1020.1
310.15 K	1001.19	1004.89	1008.86	1012.35	1016.39	1019.34
318.15 K	998.01	1001.68	1005.6	1009.09	1013.09	1016.02

CCC(N)C(=O)O (stereo not drawn) [(.+-.)-α-aminobutyric acid] + O
mass density [kg/m3]
Conditions	m1 = 0.2006	m1 = 0.4945	m1 = 0.5944	m1 = 0.6791	m1 = 0.7812	m1 = 0.8868	m1 = 0.9902
288.15 K	1004.67	1012.46	1015	1017.13	1019.67	1022.24	1024.71
298.15 K	1002.5	1010.14	1012.62	1014.71	1017.19	1019.71	1022.13
308.15 K	999.41	1006.94	1009.38	1011.44	1013.88	1016.36	1018.74
310.15 K	998.69	1006.2	1008.64	1010.69	1013.12	1015.6	1017.97
318.15 K	995.55	1003.01	1005.46	1007.5	1009.85	1012.32	1014.68

O [water] + CCC(N)C(=O)O
Conditions	mass density [kg/m3]
310.15 K, m2 = 0	993.32

NCC(=O)O [2-aminoacetic acid] + O
mass density [kg/m3]
Conditions	m1 = 0.0602	m1 = 0.1201	m1 = 0.1992	m1 = 0.3016	m1 = 0.3854	m1 = 0.4462	m1 = 0.5271	m1 = 0.6444	m1 = 0.7856
288.15 K	1001.04	1002.97	1005.49	1008.71	1011.3	1013.17	1015.62	1019.16	1023.32
298.15 K	998.98	1000.87	1003.34	1006.49	1009.02	1010.84	1013.23	1016.66	1020.69
308.15 K	995.95	997.8	1000.22	1003.32	1005.82	1007.61	1009.97	1013.36	1017.38
310.15 K	995.25	997.1	999.51	1002.59	1005.07	1006.86	1009.22	1012.6	1016.6
318.15 K	992.13	993.97	–	999.45	1001.91	1003.69	1006.03	1009.41	1013.42

N[C@@H](CO)C(=O)O [L-serine] + O
mass density [kg/m3]
Conditions	m1 = 0.0489	m1 = 0.104	m1 = 0.2	m1 = 0.292	m1 = 0.3911	m1 = 0.471	m1 = 0.5884	m1 = 0.6788	m1 = 0.7168
288.15 K	1001.29	1003.76	1008.02	1012.04	1016.28	1019.63	1024.47	1028.16	1029.64
298.15 K	999.22	1001.64	1005.81	1009.76	1013.93	1017.22	1021.98	1025.59	1027.05
308.15 K	996.21	998.6	1002.72	1006.6	1010.72	1013.95	1018.62	1022.22	1023.66
310.15 K	995.5	997.89	1002	1005.88	1009.98	1013.21	1017.85	1021.44	1022.88
318.15 K	992.38	994.75	998.83	1002.65	1006.72	1009.93	1014.6	1018.12	1019.57

CCCCn1cc[n+](C)c1.[Br-] [1-butyl-3-methylimidazolium bromide] + O
mass density [kg/m3]
Conditions	288.15 K	298.15 K	308.15 K	310.15 K	318.15 K
m1 = 0.0493	1001.53	999.41	996.35	995.63	992.48
m1 = 0.0509	1001.61	999.52	996.47	995.75	992.61
m1 = 0.0513	1001.57	999.46	996.38	995.68	992.51
m1 = 0.0518	1001.67	999.57	996.52	995.81	992.66
m1 = 0.0557	1001.85	999.75	996.69	995.98	992.83
m1 = 0.1002	1003.91	1001.72	998.61	997.87	994.63
m1 = 0.1004	1004.02	1001.86	998.75	998.04	994.69
m1 = 0.101	1004.05	1001.87	998.72	998	994.83
m1 = 0.1073	1004.38	1002.22	999.1	998.38	995.11
m1 = 0.1133	1005.08	1002.9	999.78	999.06	995.72
m1 = 0.1957	1008.66	1006.35	1003.13	1002.38	999.01
m1 = 0.2009	1008.82	1006.51	1003.27	1002.54	999.26
m1 = 0.201	1008.91	1006.62	1003.37	1002.65	999.35
m1 = 0.2016	1009.08	1006.79	1003.57	1002.83	999.57
m1 = 0.2345	1010.39	1008.06	1004.81	1004.05	1000.65
m1 = 0.2633	1012.6	1010.24	1006.95	1006.2	1002.9
m1 = 0.2918	1013.08	1010.67	1007.36	1006.6	1003.16
m1 = 0.2964	1013.29	1010.87	1007.54	1006.76	1003.29
m1 = 0.2981	1013.19	1010.75	1007.42	1006.65	1003.33
m1 = 0.3007	1013.75	1011.3	1007.96	1007.19	1003.81
